Measured values as given in ChEMBL document CHEMBL1201862, “PubChem BioAssay data set” (2004).
Activity calls are given as the source filed them.

Key:
HEK293 [1] = experiment: cells; type: functional, cell-based; settings: Homo sapiens
[2] = target: Nucleotide-binding oligomerization domain-containing protein 2 (Homo sapiens, UniProt Q9HC29); experiment: inhibition of NOD2-driven NF-kB reporter – cell-based, luminescence, uHTS, HEK293 (AID 1566); type: functional
[3] = NIH3T3 cell viability loss – ATP luminescence, mouse fibroblasts, counter-screen, dose response (AID 2010); type: functional, cell-based;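 further: cells exposed to compound for about 90 hours before reading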
[4] = non-specific 3'UTR reporter inhibition in Clone20-Shn3RL – cell-based, Renilla luciferase, cherry-picked, counter-screen for Shn3 inhibitor project, dose response (AID 624133); type: functional
[5] = reduction of Shn3 3'UTR-driven luciferase in osteoblasts – cell-based, Clone20 osteoblasts, firefly luciferase, cherry-picked, dose response (AID 624132); type: functional;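 further: firefly luciferase luminescence from reporter carrying the Shn3 3'UTR in osteoblasts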
HEK293 [6] = experiment: cells; type: functional, cell-based; settings: Homo sapiens; remark: listed apart in the source
HEK293 [7] = experiment: NOD2 signaling inhibitors in MDP-stimulated cells, cell-based, uHTS, luminescence (AID 2001); type: functional; settings: Homo sapiens
[8] = target: FAD-linked sulfhydryl oxidase ALR (Homo sapiens, UniProt P55789); experiment: ALR-catalysed DTT oxidation blockers – biochemical, H2O2 detection, luminescence, cherry-pick, dose response (AID 493248)
HEK293 [9] = experiment: inhibition of NOD1-driven NF-kB reporter – cell-based, luminescence, uHTS, primary screen (AID 1578); type: functional; settings: Homo sapiens
[10] = general mammalian cell viability loss – activator set, cherry-pick, cytotoxicity control for miR-122 modulator project, dose response (AID 720690); type: functional, cell-based;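 further: HEK293T human cells scored for general mammalian cytotoxicity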
HEK293 [11] = experiment: cells; type: functional, cell-based; settings: Homo sapiens; remark: listed apart in the source
[12] = general mammalian cell viability loss – inhibitor set, cherry-pick, set 2, cytotoxicity control for miR-122 modulator project, dose response (AID 720697); type: functional, cell-based
[13] = target: Heat shock protein HSP 90-alpha (Homo sapiens, UniProt P07900); type: functional, organism-based
Beta-galactosidase = Beta-galactosidase (Escherichia coli, UniProt Q8VNN2); experiment: detection-enzyme interference by beta-gal modulators – biochemical, E. coli enzyme, set 3, artefact control for CCR6 antagonist project, dose response (AID 504712); type: functional
[14] = loss of viability in HepG2 cells – cell-based, CellTiter-Glo, cherry-picked, cytotoxicity control for Shn3 inhibitor project, dose response (AID 624134); type: functional
[15] = Fluorescence-based cell-based high throughput dose response assay for inhibitors of the interaction of nucleotide-binding oligomerization domain containing 2 (NOD2) and the receptor-interacting serine-threonine kinase 2 (RIPK2).; type: functional; settings: Homo sapiens
INS1 = experiment: INS-1E survival protection against cytokine death – cell-based, luminescence, retest, dose response (AID 449756); type: functional; settings: Rattus norvegicus;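 further: cell death triggered by IL-1 beta plus TNF-alpha plus IFN-gamma mixture; protective hits raise ATP signal compared with cytokine alone wells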
[16] = activation of miR-122 Renilla sensor silencing – cell-based, Huh7 psiCHECK-miR122, Renilla luciferase, cherry-picked, dose response (AID 651956); type: functional;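 further: huh7 hepatoma cells stably carrying a psiCHECK-2 miR-122 sensor plasmid; renilla luciferase signal reporting endogenous miR-122 activity after 48 h compound exposure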
[17] = Trypanosoma cruzi growth suppression in host cells – NIH3T3 host cells, beta-gal luminescence, confirmation (AID 2044); type: functional, cell-based;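 further: intracellular parasites grown in NIH/3T3 mouse fibroblasts as host cells; luminescent beta-galactosidase reporter signal from transgenic T. cruzi replicating inside host cells; inhibitors lower the luminescence signal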
Apelin receptor = Apelin receptor (Homo sapiens, UniProt P35414); experiment: apelin receptor antagonists, arrestin read-out – cell-based, luminescent, enzyme-fragment complementation, selectivity assay for CCR6 antagonist project, SAR follow-up (AID 588359); type: functional
Cytochrome P450 2D6 = Cytochrome P450 2D6 (Homo sapiens, UniProt P10635);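 further: CYP2D6 member of a cytochrome P450 panel assay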
Cytochrome P450 2C9 = Cytochrome P450 2C9 (Homo sapiens, UniProt P11712)
Cytochrome P450 2C19 = Cytochrome P450 2C19 (Homo sapiens, UniProt P33261); experiment: Cytochrome panel assay with activity outcomes. Panel member name: p450-cyp2c19 Compounds with AC50 equal or less than 10 uM are considered active; type: functional; settings: read-out: AC50
[18] = NIH-3T3 fibroblast cytotoxicity, dose response, cytotoxicity control, cell-based, fluorescence, Alamar Blue, secondary assay (AID 2327); type: functional;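 further: NIH-3T3 mouse fibroblasts cultured with fluconazole at 8 µg/mL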
[19] = Luminescence Cell-Based Dose Response HTS to Identify Inhibitors of 5'UTR Stem-Loop Driven Prion Protein mRNA Translation in H4 Neuroglioblastoma Cells. [Related pubchem assays: 1827 (Project Summary), 1813 (Primary HTS)]; type: functional
[20] = luciferase reporter signal suppression in cells – H4 neuroglioma cells, luminescence, dose response (AID 1990); type: functional, cell-based
[21] = target: Bifunctional protein GlmU (Mycobacterium tuberculosis, UniProt P9WMN3); experiment: Inhibitors of Mycobacterial Glucosamine-1-phosphate acetyl transferase (GlmU). Secondary screen.; set-up: species or system Mycobacterium tuberculosis H37Rv
[22] = alpha-synuclein stem-loop luciferase translation blockers – H4 neuroglioma cells, luminescence, confirmation (AID 1988); type: functional, cell-based
Protein RecA = target: T1, Protein RecA (Mycobacterium tuberculosis, UniProt P9WHJ3); experiment: Fluorescence Cell-Free Homogeneous Dose Retest to Identify Inhibitors of RecA-Intein Splicing Activity. [Related pubchem assays (depositor defined):AID2097, AID2223, AID489010, AID492950]; type: functional
T1 sequence (P9WHJ3 whole entry): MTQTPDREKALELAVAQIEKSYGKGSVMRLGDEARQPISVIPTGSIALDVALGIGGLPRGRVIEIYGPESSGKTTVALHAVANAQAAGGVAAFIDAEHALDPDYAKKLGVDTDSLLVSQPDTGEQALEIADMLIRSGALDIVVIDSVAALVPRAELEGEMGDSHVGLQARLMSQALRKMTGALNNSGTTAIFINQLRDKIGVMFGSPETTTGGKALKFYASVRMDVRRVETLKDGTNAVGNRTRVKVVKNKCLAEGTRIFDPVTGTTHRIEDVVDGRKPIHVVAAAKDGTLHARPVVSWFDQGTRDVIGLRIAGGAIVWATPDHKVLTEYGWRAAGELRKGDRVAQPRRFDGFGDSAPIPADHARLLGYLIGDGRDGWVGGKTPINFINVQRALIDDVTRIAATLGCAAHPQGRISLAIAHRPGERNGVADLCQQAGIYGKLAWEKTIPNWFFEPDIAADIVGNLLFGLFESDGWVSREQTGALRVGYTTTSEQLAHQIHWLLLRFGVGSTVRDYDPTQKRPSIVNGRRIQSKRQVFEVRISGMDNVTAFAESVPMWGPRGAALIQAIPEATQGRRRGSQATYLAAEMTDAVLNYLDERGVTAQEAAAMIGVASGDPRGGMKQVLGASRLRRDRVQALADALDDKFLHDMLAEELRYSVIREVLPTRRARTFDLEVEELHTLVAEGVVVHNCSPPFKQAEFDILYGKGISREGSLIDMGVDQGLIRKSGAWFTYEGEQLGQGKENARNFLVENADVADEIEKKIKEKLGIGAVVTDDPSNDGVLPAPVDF

[23] = fluconazole-exposed Candida albicans growth modulators – fluorescence, retest, confirmation (AID 2467); type: functional, cell-based
[24] = target: T2, Replicative DNA helicase DnaB (Mycobacterium tuberculosis, UniProt P9WMR3); experiment: DnaB intein splicing inhibitors, dose response, biochemical, cell-free fluorescence (AID 449749); type: functional
T2 sequence (P9WMR3 whole entry): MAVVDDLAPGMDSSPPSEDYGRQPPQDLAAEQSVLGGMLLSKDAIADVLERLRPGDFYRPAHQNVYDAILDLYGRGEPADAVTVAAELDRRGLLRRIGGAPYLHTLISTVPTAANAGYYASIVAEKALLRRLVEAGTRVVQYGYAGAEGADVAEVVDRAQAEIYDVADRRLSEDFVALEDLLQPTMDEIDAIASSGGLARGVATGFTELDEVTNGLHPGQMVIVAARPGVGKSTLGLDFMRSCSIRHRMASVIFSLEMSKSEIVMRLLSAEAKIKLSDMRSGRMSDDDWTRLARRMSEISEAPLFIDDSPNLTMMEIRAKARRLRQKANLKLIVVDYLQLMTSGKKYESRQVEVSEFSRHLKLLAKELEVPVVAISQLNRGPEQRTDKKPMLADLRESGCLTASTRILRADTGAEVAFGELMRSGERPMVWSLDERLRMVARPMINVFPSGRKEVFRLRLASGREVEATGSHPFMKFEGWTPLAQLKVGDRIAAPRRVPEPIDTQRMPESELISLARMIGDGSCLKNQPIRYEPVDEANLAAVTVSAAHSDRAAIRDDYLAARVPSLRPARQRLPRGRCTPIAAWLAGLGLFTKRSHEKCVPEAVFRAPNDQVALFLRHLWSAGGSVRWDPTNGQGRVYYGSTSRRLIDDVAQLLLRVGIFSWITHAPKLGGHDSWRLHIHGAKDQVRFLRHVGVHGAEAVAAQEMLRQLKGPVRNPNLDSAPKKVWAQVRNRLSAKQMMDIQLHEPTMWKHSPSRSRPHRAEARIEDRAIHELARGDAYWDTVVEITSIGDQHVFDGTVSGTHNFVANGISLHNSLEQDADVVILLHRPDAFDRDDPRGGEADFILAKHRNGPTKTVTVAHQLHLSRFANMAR

Caspase-6 = target: T3, Caspase-6 (Homo sapiens, UniProt P55212); experiment: inhibition of CASP6 peptide cleavage – biochemical, VEID-R110 fluorescence, cherry-pick, dose response (AID 720632)
T3 sequence (P55212 whole entry): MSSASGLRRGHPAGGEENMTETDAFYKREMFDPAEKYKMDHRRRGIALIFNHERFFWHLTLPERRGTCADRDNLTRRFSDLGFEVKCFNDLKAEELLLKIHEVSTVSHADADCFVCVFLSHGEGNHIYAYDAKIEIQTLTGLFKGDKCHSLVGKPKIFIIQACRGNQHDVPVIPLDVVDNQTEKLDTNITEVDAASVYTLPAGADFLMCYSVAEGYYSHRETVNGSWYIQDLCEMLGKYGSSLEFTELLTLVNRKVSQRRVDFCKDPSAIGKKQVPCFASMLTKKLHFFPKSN

[25] = target: Induced myeloid leukemia cell differentiation protein Mcl-1 (Homo sapiens, UniProt Q07820); type: functional
[26] = target: Lysine-specific demethylase 4C (Homo sapiens, UniProt Q9H3R0); experiment: inhibition of JMJD2C H3K9me3 demethylation – biochemical, DELFIA europium, cherry-picked samples, dose response (AID 488835); type: functional
Cytochrome P450 1A2 = target: T4, Cytochrome P450 1A2 (Homo sapiens, UniProt P05177);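 further: PubChem cytochrome P450 panel assay, CYP1A2 panel member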
T4 sequence (P05177 whole entry): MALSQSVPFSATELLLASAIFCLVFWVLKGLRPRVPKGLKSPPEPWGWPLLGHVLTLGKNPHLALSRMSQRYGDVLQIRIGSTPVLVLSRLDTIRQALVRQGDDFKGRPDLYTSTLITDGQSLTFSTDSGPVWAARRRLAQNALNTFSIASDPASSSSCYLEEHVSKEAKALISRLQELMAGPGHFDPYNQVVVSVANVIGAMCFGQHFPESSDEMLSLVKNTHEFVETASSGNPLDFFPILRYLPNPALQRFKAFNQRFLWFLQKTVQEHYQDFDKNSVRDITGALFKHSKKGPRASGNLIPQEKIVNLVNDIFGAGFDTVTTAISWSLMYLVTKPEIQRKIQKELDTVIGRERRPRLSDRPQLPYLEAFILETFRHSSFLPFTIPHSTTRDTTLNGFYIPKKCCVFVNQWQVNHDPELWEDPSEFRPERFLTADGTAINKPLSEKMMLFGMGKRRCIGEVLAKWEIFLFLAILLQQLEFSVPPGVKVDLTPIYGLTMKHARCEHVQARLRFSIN

Sequence of Cytochrome P450 2D6 (P10635 whole entry): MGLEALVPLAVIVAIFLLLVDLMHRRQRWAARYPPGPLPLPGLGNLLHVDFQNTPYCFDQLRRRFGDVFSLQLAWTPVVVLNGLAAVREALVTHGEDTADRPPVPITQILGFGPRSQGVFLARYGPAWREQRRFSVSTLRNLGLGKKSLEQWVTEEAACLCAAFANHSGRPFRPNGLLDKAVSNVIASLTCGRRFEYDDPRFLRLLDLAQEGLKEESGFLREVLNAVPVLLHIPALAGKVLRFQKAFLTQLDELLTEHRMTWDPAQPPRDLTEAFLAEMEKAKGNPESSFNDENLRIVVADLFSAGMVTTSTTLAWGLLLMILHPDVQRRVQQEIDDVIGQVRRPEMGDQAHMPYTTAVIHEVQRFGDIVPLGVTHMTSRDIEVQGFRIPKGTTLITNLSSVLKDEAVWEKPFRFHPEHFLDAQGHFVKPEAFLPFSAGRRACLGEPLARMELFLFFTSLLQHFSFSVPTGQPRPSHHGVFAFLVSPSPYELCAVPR
Sequence of Cytochrome P450 2C19 (P33261 whole entry): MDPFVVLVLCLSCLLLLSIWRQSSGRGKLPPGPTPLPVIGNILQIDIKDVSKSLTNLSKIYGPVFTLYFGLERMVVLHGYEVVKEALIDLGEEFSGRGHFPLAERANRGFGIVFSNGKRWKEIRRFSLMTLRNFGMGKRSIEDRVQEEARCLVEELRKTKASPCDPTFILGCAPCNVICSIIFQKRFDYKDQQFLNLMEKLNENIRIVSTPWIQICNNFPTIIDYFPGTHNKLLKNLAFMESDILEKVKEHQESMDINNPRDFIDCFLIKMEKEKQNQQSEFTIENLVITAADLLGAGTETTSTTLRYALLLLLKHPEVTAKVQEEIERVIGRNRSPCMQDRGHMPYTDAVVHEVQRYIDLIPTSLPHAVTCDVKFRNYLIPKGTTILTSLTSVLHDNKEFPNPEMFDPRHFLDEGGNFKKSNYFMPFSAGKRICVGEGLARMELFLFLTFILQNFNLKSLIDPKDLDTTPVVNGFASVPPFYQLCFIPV
Sequence of Induced myeloid leukemia cell differentiation protein Mcl-1 (Q07820 whole entry): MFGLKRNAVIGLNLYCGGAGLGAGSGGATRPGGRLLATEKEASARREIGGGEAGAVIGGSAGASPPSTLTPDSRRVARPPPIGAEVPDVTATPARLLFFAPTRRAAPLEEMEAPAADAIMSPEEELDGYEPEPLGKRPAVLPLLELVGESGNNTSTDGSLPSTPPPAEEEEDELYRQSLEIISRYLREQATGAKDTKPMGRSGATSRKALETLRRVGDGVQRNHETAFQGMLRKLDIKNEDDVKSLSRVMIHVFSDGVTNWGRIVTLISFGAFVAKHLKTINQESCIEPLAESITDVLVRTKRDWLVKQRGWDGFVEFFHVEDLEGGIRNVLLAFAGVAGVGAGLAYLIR
Sequence of Apelin receptor (P35414 whole entry, the tested form may be a part): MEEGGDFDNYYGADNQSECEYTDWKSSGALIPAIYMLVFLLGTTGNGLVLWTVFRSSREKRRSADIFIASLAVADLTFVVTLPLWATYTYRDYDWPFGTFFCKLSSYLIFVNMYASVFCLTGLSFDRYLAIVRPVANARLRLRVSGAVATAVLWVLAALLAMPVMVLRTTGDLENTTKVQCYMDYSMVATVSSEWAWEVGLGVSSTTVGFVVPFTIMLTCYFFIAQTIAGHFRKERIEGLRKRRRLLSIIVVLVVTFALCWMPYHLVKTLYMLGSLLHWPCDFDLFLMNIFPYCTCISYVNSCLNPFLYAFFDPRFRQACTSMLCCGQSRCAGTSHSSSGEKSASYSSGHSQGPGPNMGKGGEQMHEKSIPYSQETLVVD
Sequence of Lysine-specific demethylase 4C (Q9H3R0 whole entry): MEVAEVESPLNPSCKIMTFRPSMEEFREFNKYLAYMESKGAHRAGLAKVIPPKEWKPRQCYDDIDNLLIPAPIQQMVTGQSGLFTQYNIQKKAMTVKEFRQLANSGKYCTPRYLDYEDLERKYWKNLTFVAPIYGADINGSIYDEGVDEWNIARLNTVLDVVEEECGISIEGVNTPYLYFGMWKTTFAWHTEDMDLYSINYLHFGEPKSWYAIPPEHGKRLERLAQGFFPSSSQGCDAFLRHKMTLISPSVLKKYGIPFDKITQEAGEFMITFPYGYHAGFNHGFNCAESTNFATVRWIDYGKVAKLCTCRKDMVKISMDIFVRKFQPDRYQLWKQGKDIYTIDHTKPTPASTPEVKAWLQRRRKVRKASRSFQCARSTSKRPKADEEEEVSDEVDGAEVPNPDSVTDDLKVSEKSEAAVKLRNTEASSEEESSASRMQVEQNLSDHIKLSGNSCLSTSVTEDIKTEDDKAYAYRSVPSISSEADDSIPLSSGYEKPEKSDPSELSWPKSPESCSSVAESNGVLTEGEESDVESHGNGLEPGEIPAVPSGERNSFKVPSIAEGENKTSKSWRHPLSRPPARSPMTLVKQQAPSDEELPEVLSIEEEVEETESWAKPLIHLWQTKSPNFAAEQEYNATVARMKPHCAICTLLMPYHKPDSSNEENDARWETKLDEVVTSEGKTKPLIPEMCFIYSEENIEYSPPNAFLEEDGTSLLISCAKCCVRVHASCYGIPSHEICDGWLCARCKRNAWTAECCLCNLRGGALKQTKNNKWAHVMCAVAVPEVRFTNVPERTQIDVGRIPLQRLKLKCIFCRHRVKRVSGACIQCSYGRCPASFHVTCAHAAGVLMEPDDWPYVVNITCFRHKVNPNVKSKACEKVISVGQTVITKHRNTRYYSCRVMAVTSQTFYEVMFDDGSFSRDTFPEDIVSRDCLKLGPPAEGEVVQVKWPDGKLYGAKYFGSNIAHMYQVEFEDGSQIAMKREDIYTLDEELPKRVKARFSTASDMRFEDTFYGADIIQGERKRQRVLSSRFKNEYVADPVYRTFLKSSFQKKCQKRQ
Sequence of Cytochrome P450 2C9 (P11712 whole entry): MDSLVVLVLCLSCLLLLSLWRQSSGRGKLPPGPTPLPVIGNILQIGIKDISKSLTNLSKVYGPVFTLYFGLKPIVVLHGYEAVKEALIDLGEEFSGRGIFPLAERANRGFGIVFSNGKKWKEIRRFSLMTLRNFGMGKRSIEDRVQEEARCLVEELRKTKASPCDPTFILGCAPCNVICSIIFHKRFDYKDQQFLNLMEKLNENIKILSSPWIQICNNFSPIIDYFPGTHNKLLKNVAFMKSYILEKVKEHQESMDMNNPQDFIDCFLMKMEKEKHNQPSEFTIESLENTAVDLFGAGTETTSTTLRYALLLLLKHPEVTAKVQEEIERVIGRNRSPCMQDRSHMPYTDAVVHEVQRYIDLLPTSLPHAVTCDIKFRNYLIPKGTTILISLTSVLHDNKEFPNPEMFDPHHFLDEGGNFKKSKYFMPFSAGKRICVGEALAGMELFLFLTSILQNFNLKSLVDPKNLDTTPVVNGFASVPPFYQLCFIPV
Sequence of Beta-galactosidase (Q8VNN2 whole entry): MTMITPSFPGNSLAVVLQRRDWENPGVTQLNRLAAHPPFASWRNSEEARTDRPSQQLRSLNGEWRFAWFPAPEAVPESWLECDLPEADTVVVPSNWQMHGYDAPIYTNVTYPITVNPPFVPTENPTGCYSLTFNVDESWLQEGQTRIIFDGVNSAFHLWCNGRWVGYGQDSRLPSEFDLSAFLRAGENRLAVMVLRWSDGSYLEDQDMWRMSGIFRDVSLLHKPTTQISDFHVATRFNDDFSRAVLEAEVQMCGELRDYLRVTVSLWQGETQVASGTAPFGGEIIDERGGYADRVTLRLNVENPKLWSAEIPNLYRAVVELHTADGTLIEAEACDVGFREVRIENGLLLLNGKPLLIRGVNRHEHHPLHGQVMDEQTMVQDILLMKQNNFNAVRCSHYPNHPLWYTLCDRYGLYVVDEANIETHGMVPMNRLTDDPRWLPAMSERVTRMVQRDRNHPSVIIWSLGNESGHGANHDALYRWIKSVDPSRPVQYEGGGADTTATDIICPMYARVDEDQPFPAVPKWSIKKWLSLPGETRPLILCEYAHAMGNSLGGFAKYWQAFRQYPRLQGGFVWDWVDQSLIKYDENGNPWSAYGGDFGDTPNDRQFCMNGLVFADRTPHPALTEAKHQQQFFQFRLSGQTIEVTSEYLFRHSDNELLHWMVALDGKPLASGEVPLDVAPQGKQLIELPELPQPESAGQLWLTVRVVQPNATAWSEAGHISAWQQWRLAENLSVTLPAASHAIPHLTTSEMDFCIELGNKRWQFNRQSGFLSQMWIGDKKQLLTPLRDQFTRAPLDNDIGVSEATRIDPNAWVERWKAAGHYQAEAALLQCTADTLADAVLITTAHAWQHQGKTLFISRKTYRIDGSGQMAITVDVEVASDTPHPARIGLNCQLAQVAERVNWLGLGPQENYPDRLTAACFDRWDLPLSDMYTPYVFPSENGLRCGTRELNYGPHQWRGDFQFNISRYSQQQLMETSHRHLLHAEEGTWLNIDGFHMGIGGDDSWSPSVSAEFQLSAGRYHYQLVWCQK
Sequence of Bifunctional protein GlmU (P9WMN3 whole entry): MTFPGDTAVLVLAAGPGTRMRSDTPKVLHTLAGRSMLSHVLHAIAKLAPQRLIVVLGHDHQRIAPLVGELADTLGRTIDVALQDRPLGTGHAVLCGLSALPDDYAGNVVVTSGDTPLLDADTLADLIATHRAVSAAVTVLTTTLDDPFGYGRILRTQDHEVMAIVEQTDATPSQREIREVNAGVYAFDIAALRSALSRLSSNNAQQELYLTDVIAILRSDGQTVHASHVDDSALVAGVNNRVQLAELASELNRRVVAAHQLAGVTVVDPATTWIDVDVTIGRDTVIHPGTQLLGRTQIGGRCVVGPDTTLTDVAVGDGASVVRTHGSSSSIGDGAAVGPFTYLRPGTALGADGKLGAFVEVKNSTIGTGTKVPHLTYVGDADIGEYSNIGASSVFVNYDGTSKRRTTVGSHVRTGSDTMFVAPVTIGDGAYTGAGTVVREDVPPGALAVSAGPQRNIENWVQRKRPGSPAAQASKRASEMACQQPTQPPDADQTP
Sequence of FAD-linked sulfhydryl oxidase ALR (P55789 whole entry): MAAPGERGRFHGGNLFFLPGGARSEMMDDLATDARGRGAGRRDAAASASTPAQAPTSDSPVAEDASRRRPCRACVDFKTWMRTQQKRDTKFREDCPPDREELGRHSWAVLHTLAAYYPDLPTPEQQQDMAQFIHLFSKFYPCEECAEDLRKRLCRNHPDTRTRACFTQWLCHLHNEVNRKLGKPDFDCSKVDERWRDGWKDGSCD

Structure (SMILES): Cc1ccc(S(=O)(=O)c2ccc([N+](=O)[O-])cn2)cc1
- IC50 (HEK293 [1]): > 20 µM (inactive)
- EC50 [2]: > 20 µM (inactive)
- EC50 [3]: 3.42 µM (active)
- AC50 [4]: 3.26 µM (active)
- AC50 [5]: 3.85 µM (active)
- IC50 (HEK293 [6]): > 20 µM (inactive)
- IC50 (HEK293 [7]): 6.5 µM (active)
- AC50 [8]: 15.3 µM (active)
- EC50 (HEK293 [9]): 6.69 µM (active)
- AC50 [10]: 4.36 µM (active)
- IC50 (HEK293 [11]): 5.37 µM (active)
- AC50 [12]: 7.35 µM (active)
- AC50 [13]: 4.18 µM (active)
- IC50 (Beta-galactosidase): > 66.6 µM (inactive)
- AC50 [14]: 12.1 µM (active)
- IC50 [15]: 6.33 µM (active)
- AC50 (INS1): > 260 µM (inactive)
- AC50 [16]: 10.6 µM (active)
- EC50 [17]: 2.38 µM (active)
- IC50 (Apelin receptor): 23.4 µM (inactive)

Structure (SMILES): COc1ccc(C(=O)Nc2cccc(-c3cnc4ccccc4n3)c2)cc1
- AC50 (Cytochrome P450 2D6): inconclusive
- AC50 (Cytochrome P450 2C9): 1.78 µM (inconclusive)
- AC50 (Cytochrome P450 2C19): 2.24 µM (inconclusive)

Structure (SMILES): O=[N+]([O-])c1cc(/C=N/Nc2nc3ccccc3[nH]2)c(O)cc1O
- EC50 [18]: > 150 µM (inactive)
- EC50 [19]: 11.2 µM (active)
- EC50 [20]: 9.68 µM (inconclusive)
- IC50 [21]: 125 µM (active)
- EC50 [22]: 3.81 µM (active)
- EC50 (Protein RecA): 6.73 µM (active)
- EC50 [23]: 2.33 µM (active)
- AC50 (INS1): 0.483 µM (active)
- AC50 [24]: 4.22 µM (active)
- AC50 (Caspase-6): 5.37 µM (active)
- IC50 [25]: 6.08 µM (active)
- AC50 [26]: 3.07 µM (active)

Structure (SMILES): CCc1ccc(N2CC(C(=O)N/N=C/c3cccc([N+](=O)[O-])c3)CC2=O)cc1 (stereo not drawn)
- AC50 (Cytochrome P450 2D6): inconclusive
- AC50 (Cytochrome P450 2C19): 0.316 µM (inconclusive)
- AC50 (Cytochrome P450 1A2): 3.16 µM (inconclusive)
